For test [1], the target named is Dual specificity protein kinase CLK3 (Homo sapiens, UniProt P49761). The class given is subcellular, K-562, COLO 205, SK-N-BE(2) and MV-4-11, Cell lysate. The conditions noted are these: read-out: Kd apparent.
Test [2] concerns the target T1, Long-chain-fatty-acid--CoA ligase 5 (Homo sapiens, UniProt Q9ULC5).
T1 sequence (Q9ULC5 whole entry): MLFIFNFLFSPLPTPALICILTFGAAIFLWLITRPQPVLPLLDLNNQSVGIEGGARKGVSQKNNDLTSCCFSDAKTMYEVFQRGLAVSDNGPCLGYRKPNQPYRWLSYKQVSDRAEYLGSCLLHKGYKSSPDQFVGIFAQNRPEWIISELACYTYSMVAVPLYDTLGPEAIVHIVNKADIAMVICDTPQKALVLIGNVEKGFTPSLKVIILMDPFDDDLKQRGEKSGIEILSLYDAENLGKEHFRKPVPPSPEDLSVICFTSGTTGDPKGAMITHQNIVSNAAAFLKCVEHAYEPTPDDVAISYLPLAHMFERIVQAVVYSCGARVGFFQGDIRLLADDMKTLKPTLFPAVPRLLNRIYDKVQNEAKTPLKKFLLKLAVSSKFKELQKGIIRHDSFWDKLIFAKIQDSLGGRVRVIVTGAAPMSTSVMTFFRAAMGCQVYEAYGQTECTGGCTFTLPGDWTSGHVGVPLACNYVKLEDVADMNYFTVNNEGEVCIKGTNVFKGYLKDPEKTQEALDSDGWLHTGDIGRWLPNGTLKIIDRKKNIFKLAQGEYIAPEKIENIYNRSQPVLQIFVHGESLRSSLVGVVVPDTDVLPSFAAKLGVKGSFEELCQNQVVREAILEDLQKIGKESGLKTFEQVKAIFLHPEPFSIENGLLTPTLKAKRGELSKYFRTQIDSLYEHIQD

For test [3], the target named is Cyclin-dependent kinase 17 (Homo sapiens, UniProt Q00537).
In a further test the target is T2, UMP-CMP kinase (Homo sapiens, UniProt P30085).
T2 sequence (P30085 whole entry): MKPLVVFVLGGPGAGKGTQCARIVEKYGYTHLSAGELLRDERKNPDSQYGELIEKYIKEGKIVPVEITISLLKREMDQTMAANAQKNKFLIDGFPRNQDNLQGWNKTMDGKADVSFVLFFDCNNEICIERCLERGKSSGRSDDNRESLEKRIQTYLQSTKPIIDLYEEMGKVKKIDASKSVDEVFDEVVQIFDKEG

Test [4] has as its target G protein-coupled receptor kinase 6 (Homo sapiens, UniProt P43250).
Test [5] concerns the target PAS domain-containing serine/threonine-protein kinase (Homo sapiens, UniProt Q96RG2).
For test [6], the target named is Serine/threonine-protein kinase pim-2 (Homo sapiens, UniProt Q9P1W9).
Test [7] addresses Proto-oncogene tyrosine-protein kinase receptor Ret (Homo sapiens, UniProt P07949).
For test [8], the target named is Dual specificity testis-specific protein kinase 2 (Homo sapiens, UniProt Q96S53).
The target of test [9] is T3, ATP-dependent RNA helicase DHX30 (Homo sapiens, UniProt Q7L2E3).
T3 sequence (Q7L2E3 whole entry): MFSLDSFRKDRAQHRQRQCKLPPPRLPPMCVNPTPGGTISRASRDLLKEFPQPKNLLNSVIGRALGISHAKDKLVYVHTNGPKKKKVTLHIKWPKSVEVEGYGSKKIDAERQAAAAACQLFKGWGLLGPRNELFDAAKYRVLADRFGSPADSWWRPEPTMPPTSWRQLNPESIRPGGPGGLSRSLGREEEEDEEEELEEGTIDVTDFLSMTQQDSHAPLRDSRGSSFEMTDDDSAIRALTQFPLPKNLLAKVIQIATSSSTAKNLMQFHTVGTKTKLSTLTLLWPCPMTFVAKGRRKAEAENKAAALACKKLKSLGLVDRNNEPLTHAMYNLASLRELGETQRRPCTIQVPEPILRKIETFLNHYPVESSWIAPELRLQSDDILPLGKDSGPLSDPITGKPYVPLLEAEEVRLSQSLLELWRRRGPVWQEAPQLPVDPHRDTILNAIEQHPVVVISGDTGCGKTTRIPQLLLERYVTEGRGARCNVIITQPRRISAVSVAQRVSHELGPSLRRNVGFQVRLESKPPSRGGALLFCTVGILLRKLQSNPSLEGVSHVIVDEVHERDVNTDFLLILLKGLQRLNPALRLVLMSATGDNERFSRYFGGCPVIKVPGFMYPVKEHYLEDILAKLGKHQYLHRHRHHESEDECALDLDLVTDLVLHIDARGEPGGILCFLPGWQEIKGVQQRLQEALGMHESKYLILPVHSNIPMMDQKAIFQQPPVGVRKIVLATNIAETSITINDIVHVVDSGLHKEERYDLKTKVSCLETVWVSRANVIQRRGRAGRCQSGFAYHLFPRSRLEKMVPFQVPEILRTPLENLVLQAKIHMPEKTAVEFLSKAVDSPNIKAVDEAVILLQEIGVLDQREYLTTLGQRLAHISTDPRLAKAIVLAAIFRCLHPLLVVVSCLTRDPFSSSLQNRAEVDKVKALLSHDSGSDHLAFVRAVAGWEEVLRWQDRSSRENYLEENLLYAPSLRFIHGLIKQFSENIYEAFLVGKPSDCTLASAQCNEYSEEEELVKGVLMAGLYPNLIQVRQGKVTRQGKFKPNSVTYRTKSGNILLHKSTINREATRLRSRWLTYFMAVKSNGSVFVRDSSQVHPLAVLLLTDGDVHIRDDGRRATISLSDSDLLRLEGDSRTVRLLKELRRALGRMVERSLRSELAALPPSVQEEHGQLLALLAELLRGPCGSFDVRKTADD

Activity calls are given as the source filed them.
Note: in the data inactive means no Kd found up to 30 µM.

Sequence of Dual specificity protein kinase CLK3 (P49761 whole entry): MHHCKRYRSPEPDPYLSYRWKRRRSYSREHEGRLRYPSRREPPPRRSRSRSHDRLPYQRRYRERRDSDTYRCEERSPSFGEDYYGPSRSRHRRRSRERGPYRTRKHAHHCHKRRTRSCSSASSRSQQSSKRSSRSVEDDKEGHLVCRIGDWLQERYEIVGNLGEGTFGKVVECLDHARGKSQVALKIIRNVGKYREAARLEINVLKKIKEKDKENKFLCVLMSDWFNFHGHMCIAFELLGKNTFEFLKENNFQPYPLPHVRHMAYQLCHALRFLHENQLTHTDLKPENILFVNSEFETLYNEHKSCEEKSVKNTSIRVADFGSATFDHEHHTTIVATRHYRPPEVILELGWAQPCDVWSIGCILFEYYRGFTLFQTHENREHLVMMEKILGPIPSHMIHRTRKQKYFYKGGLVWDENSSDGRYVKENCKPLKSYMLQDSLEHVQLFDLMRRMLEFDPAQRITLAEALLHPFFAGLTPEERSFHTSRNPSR
Sequence of Cyclin-dependent kinase 17 (Q00537 whole entry): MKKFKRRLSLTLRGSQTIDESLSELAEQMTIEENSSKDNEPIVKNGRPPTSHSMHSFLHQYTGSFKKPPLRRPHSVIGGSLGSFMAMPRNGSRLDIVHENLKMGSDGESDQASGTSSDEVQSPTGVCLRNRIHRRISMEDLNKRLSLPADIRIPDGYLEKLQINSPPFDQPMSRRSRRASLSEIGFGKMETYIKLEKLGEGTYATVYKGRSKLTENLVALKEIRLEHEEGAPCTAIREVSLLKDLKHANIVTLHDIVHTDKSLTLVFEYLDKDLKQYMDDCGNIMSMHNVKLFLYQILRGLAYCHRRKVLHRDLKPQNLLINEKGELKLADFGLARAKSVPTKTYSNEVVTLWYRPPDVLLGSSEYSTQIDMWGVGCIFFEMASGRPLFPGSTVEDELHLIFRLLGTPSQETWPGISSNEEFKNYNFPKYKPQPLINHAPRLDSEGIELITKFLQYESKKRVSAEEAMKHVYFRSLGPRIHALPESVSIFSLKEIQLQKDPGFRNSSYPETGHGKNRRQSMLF
Sequence of Proto-oncogene tyrosine-protein kinase receptor Ret (P07949 whole entry): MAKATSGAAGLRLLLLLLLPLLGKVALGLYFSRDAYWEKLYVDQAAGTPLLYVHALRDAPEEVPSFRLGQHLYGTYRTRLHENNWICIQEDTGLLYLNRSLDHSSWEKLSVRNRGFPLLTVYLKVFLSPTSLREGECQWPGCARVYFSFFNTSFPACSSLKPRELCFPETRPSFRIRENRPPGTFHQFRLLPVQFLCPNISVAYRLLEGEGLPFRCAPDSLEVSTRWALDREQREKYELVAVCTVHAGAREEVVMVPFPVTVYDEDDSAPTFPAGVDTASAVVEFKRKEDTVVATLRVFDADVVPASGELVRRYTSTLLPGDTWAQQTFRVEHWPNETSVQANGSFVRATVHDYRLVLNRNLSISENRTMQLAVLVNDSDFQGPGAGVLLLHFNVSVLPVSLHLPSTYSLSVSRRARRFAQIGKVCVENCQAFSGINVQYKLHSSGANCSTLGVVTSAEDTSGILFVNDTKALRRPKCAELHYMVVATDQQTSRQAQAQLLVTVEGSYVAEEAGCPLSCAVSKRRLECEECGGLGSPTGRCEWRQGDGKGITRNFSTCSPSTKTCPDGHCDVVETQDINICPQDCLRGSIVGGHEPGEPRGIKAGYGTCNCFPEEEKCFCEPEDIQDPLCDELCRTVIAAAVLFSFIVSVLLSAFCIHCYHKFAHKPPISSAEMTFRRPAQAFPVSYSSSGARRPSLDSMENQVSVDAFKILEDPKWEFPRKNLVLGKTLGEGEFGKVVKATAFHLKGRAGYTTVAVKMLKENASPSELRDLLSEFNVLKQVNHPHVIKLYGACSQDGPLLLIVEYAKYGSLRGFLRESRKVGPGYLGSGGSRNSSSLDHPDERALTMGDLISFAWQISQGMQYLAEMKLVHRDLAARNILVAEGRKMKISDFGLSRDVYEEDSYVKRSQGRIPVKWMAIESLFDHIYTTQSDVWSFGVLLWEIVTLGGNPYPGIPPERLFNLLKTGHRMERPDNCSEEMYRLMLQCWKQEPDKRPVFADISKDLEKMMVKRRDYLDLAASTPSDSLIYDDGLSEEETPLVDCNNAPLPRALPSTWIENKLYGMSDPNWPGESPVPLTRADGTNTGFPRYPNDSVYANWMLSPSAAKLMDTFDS
Sequence of PAS domain-containing serine/threonine-protein kinase (Q96RG2 whole entry, the tested form may be a part): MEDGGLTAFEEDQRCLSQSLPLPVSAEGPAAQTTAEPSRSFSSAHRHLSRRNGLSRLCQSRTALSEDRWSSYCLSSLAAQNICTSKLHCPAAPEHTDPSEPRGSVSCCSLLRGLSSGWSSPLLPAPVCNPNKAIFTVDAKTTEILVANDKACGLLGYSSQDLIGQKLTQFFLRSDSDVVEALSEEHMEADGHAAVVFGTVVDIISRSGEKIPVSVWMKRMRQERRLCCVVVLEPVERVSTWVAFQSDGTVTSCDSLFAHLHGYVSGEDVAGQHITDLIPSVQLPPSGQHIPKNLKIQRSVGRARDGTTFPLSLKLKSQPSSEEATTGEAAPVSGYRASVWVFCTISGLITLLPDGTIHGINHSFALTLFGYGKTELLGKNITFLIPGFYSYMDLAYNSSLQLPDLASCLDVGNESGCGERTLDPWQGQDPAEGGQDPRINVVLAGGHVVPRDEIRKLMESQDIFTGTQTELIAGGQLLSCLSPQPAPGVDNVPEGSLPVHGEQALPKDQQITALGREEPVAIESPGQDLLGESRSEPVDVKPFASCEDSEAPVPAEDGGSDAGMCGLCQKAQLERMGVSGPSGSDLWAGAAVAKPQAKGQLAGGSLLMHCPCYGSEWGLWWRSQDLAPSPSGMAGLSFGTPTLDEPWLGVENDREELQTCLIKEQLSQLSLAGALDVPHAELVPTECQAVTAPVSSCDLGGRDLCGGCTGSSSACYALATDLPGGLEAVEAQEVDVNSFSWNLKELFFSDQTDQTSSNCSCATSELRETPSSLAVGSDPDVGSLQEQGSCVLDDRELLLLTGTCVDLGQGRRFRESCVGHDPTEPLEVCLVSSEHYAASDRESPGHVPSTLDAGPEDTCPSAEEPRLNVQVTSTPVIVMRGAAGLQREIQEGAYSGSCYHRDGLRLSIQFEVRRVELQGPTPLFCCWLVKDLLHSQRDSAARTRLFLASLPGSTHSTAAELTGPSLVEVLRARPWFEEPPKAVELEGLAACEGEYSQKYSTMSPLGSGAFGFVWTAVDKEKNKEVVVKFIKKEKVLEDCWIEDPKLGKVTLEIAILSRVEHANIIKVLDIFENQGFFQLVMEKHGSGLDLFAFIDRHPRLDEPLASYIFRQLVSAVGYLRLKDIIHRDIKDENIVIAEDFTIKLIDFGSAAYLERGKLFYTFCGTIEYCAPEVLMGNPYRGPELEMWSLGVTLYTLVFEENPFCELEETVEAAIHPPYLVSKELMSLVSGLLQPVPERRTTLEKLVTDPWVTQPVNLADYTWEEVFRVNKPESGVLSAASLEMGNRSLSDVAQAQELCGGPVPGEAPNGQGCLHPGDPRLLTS
Sequence of Serine/threonine-protein kinase pim-2 (Q9P1W9 whole entry): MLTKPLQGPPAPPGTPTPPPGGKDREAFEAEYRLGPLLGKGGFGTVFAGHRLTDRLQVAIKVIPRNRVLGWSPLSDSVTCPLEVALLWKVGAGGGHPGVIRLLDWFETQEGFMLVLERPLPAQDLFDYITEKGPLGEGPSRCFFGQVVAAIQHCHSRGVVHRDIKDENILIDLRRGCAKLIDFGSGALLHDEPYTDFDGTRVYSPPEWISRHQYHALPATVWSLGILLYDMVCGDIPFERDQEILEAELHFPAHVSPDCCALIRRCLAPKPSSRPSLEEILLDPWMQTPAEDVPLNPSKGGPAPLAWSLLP
Sequence of Dual specificity testis-specific protein kinase 2 (Q96S53 whole entry): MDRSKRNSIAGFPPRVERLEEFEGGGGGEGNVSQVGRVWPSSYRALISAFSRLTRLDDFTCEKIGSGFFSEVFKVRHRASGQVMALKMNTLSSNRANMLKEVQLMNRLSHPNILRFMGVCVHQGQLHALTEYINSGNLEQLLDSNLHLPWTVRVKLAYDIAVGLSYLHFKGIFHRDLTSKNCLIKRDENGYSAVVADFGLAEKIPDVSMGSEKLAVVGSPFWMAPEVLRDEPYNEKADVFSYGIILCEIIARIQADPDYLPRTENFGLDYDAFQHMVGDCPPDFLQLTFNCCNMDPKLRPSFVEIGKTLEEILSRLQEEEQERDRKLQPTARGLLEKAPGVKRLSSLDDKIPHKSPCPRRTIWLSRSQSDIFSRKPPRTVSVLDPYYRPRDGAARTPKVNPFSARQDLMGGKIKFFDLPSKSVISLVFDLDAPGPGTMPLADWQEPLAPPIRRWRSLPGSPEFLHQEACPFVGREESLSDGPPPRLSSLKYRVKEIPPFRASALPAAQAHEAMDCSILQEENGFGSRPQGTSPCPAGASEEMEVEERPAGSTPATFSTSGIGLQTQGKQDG
Sequence of G protein-coupled receptor kinase 6 (P43250 whole entry, the tested form may be a part): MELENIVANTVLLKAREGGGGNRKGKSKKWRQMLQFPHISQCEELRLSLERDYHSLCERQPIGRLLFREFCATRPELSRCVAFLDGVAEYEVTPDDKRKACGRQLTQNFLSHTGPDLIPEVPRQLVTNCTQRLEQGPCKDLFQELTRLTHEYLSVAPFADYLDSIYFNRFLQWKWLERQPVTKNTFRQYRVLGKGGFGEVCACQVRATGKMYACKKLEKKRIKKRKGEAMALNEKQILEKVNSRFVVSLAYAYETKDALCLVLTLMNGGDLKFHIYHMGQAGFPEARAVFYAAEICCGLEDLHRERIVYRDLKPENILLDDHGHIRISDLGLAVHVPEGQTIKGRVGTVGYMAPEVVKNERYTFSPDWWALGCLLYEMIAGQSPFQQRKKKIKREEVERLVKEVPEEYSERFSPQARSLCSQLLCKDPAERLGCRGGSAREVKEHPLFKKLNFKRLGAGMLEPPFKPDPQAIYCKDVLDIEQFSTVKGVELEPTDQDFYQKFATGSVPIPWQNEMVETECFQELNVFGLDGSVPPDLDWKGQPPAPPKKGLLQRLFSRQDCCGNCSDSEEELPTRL

Take `Cc1ccc(NC(=O)c2ccc(CN3CC[C@H](N(C)C)C3)c(C(F)(F)F)c2)cc1Nc1nccc(-c2cncnc2)n1` [BAFETINIB]: the Kd (in test [1]; in test [2]; in [3]; at UMP-CMP kinase; in test [4]; in test [5]) was > 30 µM (inactive) throughout. Moreover, the Kd in test [6] was > 30 µM (inactive); in [7] it was 2.42 µM (active); in [8] it was > 30 µM (inactive).

For the compound `COc1cc(CCc2cc(NC(=O)c3ccc(N4C[C@@H](C)N[C@@H](C)C4)cc3)n[nH]2)cc(OC)c1` [AZD-4547], the Kd (in test [1]; in test [2]; in test [3]; on UMP-CMP kinase; in test [9]; in test [4]) was > 30 µM (inactive) each time. In addition, the Kd in test [5] was > 30 µM (inactive); in [6], > 30 µM (inactive); in [7], 0.029 µM (active).

With `CN1CC[C@@H](c2c(O)cc(O)c3c(=O)cc(-c4ccccc4Cl)oc23)[C@@H]1CO`, the Kd (in test [1]; in test [2]; in [3]; on UMP-CMP kinase; in test [9]; in [4]) was > 30 µM (inactive) in each case. Also, the Kd in test [5], in test [6] and in test [7] was > 30 µM (inactive) each time.

For `CNC(=O)c1cc(Oc2ccc(NC(=O)Nc3ccc(Cl)c(C(F)(F)F)c3)c(F)c2)ccn1` [REGORAFENIB], the Kd in test [1] is > 30 µM (inactive); in [2] it was > 30 µM (inactive); in test [3] it was 0.719 µM (active); at UMP-CMP kinase, > 30 µM (inactive); in test [9], > 30 µM (inactive); in test [4], > 30 µM (inactive). Besides, the Kd in [5], in [6] and in [8] was > 30 µM (inactive) throughout.

As to `Cc1cc2c(F)c(Oc3ncnn4cc(OC[C@@H](C)OC(=O)[C@H](C)N)c(C)c34)ccc2[nH]1` [BRIVANIB ALANINATE], the Kd (in test [1]; in test [2]; in test [3]; at UMP-CMP kinase; in [9]; in [4]) was > 30 µM (inactive) throughout. Besides, the Kd in [5] was > 30 µM (inactive); in test [6] it was > 30 µM (inactive); in [7] it was 7.48 µM (active); in test [8], > 30 µM (inactive).

For the compound `CC(=O)Nc1cccc(-n2c(=O)n(C3CC3)c(=O)c3c(Nc4ccc(I)cc4F)n(C)c(=O)c(C)c32)c1` [TRAMETINIB], the Kd (in test [1]; in [3]; at UMP-CMP kinase; in [9]; in test [4]; in test [5]) was > 30 µM (inactive) in each case. Further, the Kd in test [6], in [7] and in test [8] was > 30 µM (inactive) throughout.

Turning to `COCCNCc1ccc(-c2cc3nccc(Oc4ccc(NC(=S)NC(=O)Cc5ccc(F)cc5)cc4F)c3s2)nc1` [GLESATINIB], the Kd (in test [1]; in [2]; in [3]; at UMP-CMP kinase; in test [9]; in test [4]) was > 30 µM (inactive) each time. The Kd in test [5], in [6], in test [7] and in [8] was > 30 µM (inactive) each time.
